“And” between values parts separate entries of the source, which are not always exact repeats. Equal values may be shown once. Read-outs that look alike come from different tables or passages of the source.
Key:
Salmonella typhimurium = assay: MIC ESKAPES panel, Salmonella typhimurium; type: cell-based
Procedure: Minimum inhibitory concentration (MIC) against ESKAPES panel of Gram positive and Gram negative pathogens (Enterococcus faecium, Staphylococcus aureus, Klebsiella pneumoniae, Acinetobacter baumannii, Pseudomonas aeruginosa, Enterobacter cloacae and Salmonella typhimurium [ESKAPES panel]) were determined at the FNDR by the standard broth dilution method [CLSI, M100]. […] Mueller Hinton broth (MHB) medium was used to grow ESKAPES panel strains. The individual cultures were added as 200 μL (inoculum of 3–7 × 10^5 cfu/ml) to the respective assay plates in each well to all columns, except the media control (200 μL of medium). […] The assay plates were incubated at 37 °C, and the results were noted on the 2nd day as turbidometric readout. The clear wells indicated inhibition of growth, while the turbid wells indicated uninhibited growth.

[1] = type: in vitro ADME, Rat
Mtb # 11291 = assay: microbe, parasite or virus in culture; type: cell-based
[2] = test system: Mtb Beijing lineage HN878; type: cell-based, Mycobacterium tuberculosis
[3] = target: His6-tagged ClpC1-NTD substrate, M. smegmatis ClpC1P1P2 (UniProt A0R574+P9WPC9); assay: biochemical; type: biochemical; settings: for % Response / ClpC1-NTD peak area: Figure 4a source data, well replicates
Chain of His6-tagged ClpC1-NTD substrate, M. smegmatis ClpC1P1P2 (P9WPC9 1-156, looked up, natural form): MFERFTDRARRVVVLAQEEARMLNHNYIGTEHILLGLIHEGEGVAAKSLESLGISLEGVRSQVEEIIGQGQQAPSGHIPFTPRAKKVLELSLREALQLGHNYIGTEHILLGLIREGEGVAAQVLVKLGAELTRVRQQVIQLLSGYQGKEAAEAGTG
Chain of His6-tagged ClpC1-NTD substrate, M. smegmatis ClpC1P1P2 (A0R574 whole entry): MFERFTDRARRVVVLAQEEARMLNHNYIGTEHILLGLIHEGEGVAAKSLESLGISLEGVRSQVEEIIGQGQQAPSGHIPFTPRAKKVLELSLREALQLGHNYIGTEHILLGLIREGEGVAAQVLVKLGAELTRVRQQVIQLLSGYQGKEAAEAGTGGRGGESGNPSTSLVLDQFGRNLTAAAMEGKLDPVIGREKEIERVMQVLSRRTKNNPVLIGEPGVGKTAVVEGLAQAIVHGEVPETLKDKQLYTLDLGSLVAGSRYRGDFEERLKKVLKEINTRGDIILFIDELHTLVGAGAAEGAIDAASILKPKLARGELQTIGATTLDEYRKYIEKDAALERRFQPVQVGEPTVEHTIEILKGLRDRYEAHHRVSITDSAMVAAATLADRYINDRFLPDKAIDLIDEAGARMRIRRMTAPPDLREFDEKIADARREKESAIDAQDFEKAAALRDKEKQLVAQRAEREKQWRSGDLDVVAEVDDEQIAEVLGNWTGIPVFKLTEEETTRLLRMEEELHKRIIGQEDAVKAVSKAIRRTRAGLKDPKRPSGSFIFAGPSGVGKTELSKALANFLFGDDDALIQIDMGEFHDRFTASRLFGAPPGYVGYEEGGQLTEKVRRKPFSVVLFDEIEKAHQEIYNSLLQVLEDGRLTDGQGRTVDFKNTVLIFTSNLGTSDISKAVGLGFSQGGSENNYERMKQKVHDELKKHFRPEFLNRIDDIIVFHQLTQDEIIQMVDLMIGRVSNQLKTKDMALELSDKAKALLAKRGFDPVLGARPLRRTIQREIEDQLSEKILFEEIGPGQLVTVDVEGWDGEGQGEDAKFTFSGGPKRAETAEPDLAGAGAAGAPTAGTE

[4] = test system: Mycobacterium intracellulare; assay: microbe, parasite or virus in culture; type: cell-based
[5] = Hepatocyte stability, mice; type: in vitro ADME
How it was run: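 Cryopreserved mouse hepatocytes (about 1 million cells/mL, pH 7.4, 50% species serum) incubated with 1 µM compound, DMSO <0.05%, at 37 °C for up to 6 h, sampled at 6 time points. Parent remaining measured by HPLC-MS/MS; half-life converted via well-stirred liver model to clearance as % Qh.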

full-length ClpC1 = target: T1, full-length ClpC1 (Mycolicibacterium smegmatis, UniProt A0R574); assay: Cell-free degradation of full-length ClpC1 (WES, SDS-PAGE); type: biochemical, M. smegmatis; settings: WES / SYPRO Ruby SDS-PAGE, result in words
T1 construct: We also analyzed whether full-length ClpC1 would be degraded in this assay; made in house
T1 sequence (A0R574 whole entry): as above
Description: We also analyzed whether full-length ClpC1 would be degraded in this assay, by analyzing the stability of the full-length form monitored by a ClpC1-N-terminal antibody in the WES assays, or directly by SYPRO^TM Ruby stained SDS-PAGE gels in the presence or absence of ClpC1-NTD as additional substrate. The Homo-BacPROTACs tested induced no or only minor degradation of the full-length ClpC1 under these in vitro conditions (Fig. 4e). Whether this is due to hexamer formation stabilizing ClpC1 protomers or missing cofactor(s) of the protease complex, is currently unclear. Likewise, the exact sequential and structural features of native substrates targeted by ClpC1 are not known, except that partially disordered peptide segments can promote degradation.
For SDS-PAGE experiments, reaction samples were treated with 2.7 µl 4x Roti Load 1 (Roth #K929.1), instead of adding sample buffer and fluorescent mastermix, and incubated at 95 °C for 5 min. […] The PageRuler Prestained Protein Ladder (Thermo Scientific #26616) was used as a marker. […]

[6] = type: in vitro ADME, Mice
How it was run: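 Steps: incubate compound at 1 µmol/l with liver microsomes (0.5 mg/ml) plus 1 mM NADPH in pH 7.5 Tris-HCl buffer containing MgCl2 at 37 °C; stop aliquots over time with acetonitrile; centrifuge and measure remaining compound by LC-MS/MS; fit first-order decay and convert half-life to %Qh.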

Mtb H37Rv = settings: combination with bedaquiline; cited from earlier work
[7] = Salmonella enterica, TYPHIMURIUM, Gram negative, n = 3 well replicates
[8] = Salmonella enterica, TYPHIMURIUM, Gram-Negative Bacteria, replicates 1-3
[9] = Mycobacterium tuberculosis, mean, n = 2 well replicates, read-out: MIC Mtb # 11291
[10] = Experiment 2, three replicate columns
[11] = Experiment 2, three replicate columns, read-out: MIC (µM) Mycobacterium intracellulare
[12] = Mycobacterium intracellulare, Experiment 1, read-out: MIC Mycobacterium intracellulare
[13] = Mycobacterium intracellulare, Experiment 2, three replicate columns, read-out: MIC (µM) Mycobacterium intracellulare
[14] = Mycobacterium intracellulare, Experiment 2, three replicate columns, read-out: MIC (µg/ml) Mycobacterium intracellulare
[15] = Mycobacterium intracellulare, mean ± SD, read-out: MIC Mycobacterium intracellulare

## COC(c1ccccc1)C1NC(=O)C(C)NC(=O)C(CC(C)CO)N(C)C(=O)C(Cc2cn(Cc3cn(CCOCCOCCOCCOCCn4cc(Cn5cc(CC6NC(=O)C(C(C)C)NC(=O)C(CC(C)C)N(C)C(=O)C(C(C)C)NC(=O)C(C(OC)c7ccccc7)NC(=O)C(C)NC(=O)C(CC(C)CO)N(C)C6=O)c6ccccc65)nn4)nn3)c3ccccc23)NC(=O)C(C(C)C)NC(=O)C(CC(C)C)N(C)C(=O)C(C(C)C)NC1=O (stereo not drawn) [Compound 8]
Salmonella typhimurium; Gram-Negative Bacteria, replicates 1-3, listed as 8 (UdSBI-0545)
  MIC: >50 µM
Salmonella typhimurium; [7]
  MIC: > 50 µM
Salmonella typhimurium; [8]
  MIC: > 109 µg/mL
[1]; clearance in hepatocytes
  Hepatocyte Rat: 6 %Qh
Mtb # 11291; [9]
  MIC: < 0.1 µM and < 0.2 µg/mL
Mtb # 11291; Mycobacterium tuberculosis, read-out: MIC Mtb # 11291, single well replicates
  MIC: < 0.1 µM and < 0.21 µg/mL
Mtb # 11291; single well replicates, listed as 8 (UdSBAI-0545)
  MIC Mtb # 11291: <0.21 µg/mL
Mtb # 11291; single well replicates, listed as 8 (UdSBAI-0545), read-out: MIC Mtb # 11291
  MIC: <0.1 µM
[2]; compared to the matching monomers, result in words
  inhibition of bacterial growth, Mtb Beijing strain HN878: more efficient inhibition of bacterial
[3]; Msm, Measurement 1-6, read-out: DC50, single measurements
  DC50: 9 µM and 8.5 µM and 6 µM and 8.1 µM and 8.2 µM
[3]; cell-free degradation of ClpC1-NTD, 90 min, read-out: DC50 M.smegmatis ClpC1P1P2 Mean
  DC50: 8 µM
[3]; conc. 0.4 µM
  % Response: 120.356% and 117.751% and 102.838% and 93.7015% and 104.532% and 103.754% and 118.347% and 117.353% and 124.609%
  ClpC1-NTD peak area: 613438 and 713203 and 1462174 and 1713249 and 1751036 and 1183458 and 1105910 and 1047700 and 547599
[3]; conc. 33.3 µM
  % Response: 25.9293% and 29.5058% and 21.1338% and 16.911% and 37.0492% and 22.8094% and 15.8145% and 16.4069% and 19.2475%
  ClpC1-NTD peak area: 245614 and 155160 and 213594 and 218458 and 306322 and 219308 and 255600 and 176271 and 124945
[3]; conc. 100.0 µM
  % Response: 31.4886% and 23.4001% and 28.8941% and 17.4698% and 14.335% and 19.5877% and 11.6161% and 9.907% and 14.2139%
  ClpC1-NTD peak area: 99143.4 and 153042 and 198962 and 150433 and 187091 and 243688 and 174896 and 223232 and 140724
[4]; Experiment 1, listed as 8 (UdSBI-0545), read-out: MIC Mycobacterium intracellulare
  MIC: >50 µM
[4]; [10]
  MIC (µg/ml) Mycobacterium intracellulare: >108.53 µg/mL
[4]; [11]
  MIC: >50 µM
[4]; [12]
  MIC: > 109 µg/mL
[4]; [13]
  MIC: > 50 µM
[4]; [14]
  MIC: > 109 µg/mL
[4]; [15]
  MIC: > 50 µM
[5]; Mouse
  Hepatocyte Stability Mouse QH: 50.268%
[5]; clearance in hepatocytes
  Hepatocyte Mice: 32 %Qh
full-length ClpC1
  degradation of full-length ClpC1: not significantly degraded
[6]; clearance in microsomes
  Microsomal Stability Mice: 72 %Qh

## COC(c1ccccc1)C1NC(=O)C(C)NC(=O)C(CC(C)CO)N(C)C(=O)C(Cc2cn(C)c3ccccc23)NC(=O)C(Cc2cn(CCCCCn3cc(CC4NC(=O)C(CC(C)C)N(C)C(=O)C(C(C)C)NC(=O)C(C(OC)c5ccccc5)NC(=O)C(C)NC(=O)C(CC(C)CO)N(C)C(=O)C(Cc5cn(C)c6ccccc56)NC4=O)nn3)nn2)NC(=O)C(CC(C)C)N(C)C(=O)C(C(C)C)NC1=O (stereo not drawn) [Compound 12]
Salmonella typhimurium; Gram-Negative Bacteria, replicates 1-3, listed as 12 (UdSBI-4377)
  MIC: >50 µM
Salmonella typhimurium; [7]
  MIC: > 50 µM
Salmonella typhimurium; [8]
  MIC: > 99 µg/mL
[1]; rat, pH 7.4
  Hepatocyte Rat: 6 %Qh
Mtb # 11291; [9]
  MIC: < 0.1 µM and < 0.2 µg/mL
Mtb # 11291; Mycobacterium tuberculosis, single well replicates, read-out: MIC Mtb # 11291
  MIC: < 0.1 µM and < 0.19 µg/mL
Mtb # 11291; single well replicates, listed as 12 (UdSBI-4377)
  MIC Mtb # 11291: <0.19 µg/mL
Mtb # 11291; single well replicates, listed as 12 (UdSBI-4377), read-out: MIC Mtb # 11291
  MIC: <0.1 µM
[2]
  inhibition of bacterial growth, Mtb Beijing strain HN878: more efficient inhibition of bacterial
[3]; read-out: DC50, single measurements
  DC50: 10.3 µM and 9.3 µM and 5.3 µM and 8.3 µM and 7.6 µM
[3]; read-out: DC50 M.smegmatis ClpC1P1P2 Mean
  DC50: 8.4 µM
[3]; read-out: DMax M.smegmatis ClpC1P1P2 Mean
  Dmax: 81%
Mtb H37Rv
  effect of bedaquiline on activity against Mtb H37Rv: no effect
[4]; Experiment 1, listed as 12 (UdSBI-4377), read-out: MIC Mycobacterium intracellulare
  MIC: >50 µM
[4]; [10]
  MIC (µg/ml) Mycobacterium intracellulare: >99.02 µg/mL
[4]; [11]
  MIC: >50 µM
[4]; [12]
  MIC: > 99 µg/mL
[4]; [13]
  MIC: > 50 µM
[4]; [14]
  MIC: > 99 µg/mL
[4]; [15]
  MIC: > 50 µM
[5]; mouse, pH 7.4
  Hepatocyte Mice: 15 %Qh
[6]; mouse, microsomes, pH 7.5
  Microsomal Stability Mice: < 24 %Qh
  Microsomal Stability Mouse QH: <24.2%

— publication PMC10914731, “Homo-BacPROTAC-induced degradation of ClpC1 as a strategy against drug-resistant mycobacteria” (Nature Communications, 2024)
